Results as given in US8952024B2, “Herbicidal pyrimidone derivatives” (E I du Pont de Nemours and Company, priority 2009, dated 2015).

How the values were obtained:
Assay in all cases: Test B pre-/postemergence plant response
Assay type in all cases: in vivo
Conditions in all cases: Postemergence
[1] = test system: morningglory (Ipomoea coccinea)
Summary of the method: (§1)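 Visual ratings on a 0–100 scale (100 = complete control) were made versus untreated controls 13–15 days after treatment in a greenhouse. Compounds in surfactant-containing non-phytotoxic solvent were applied preemergence to seeds in loam–sand blend or postemergence to 1- to 4-leaf plants (2–18 cm).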

corn (Zea mays) = test system: corn (Zea mays)
Summary of the method: as §1

[2] = test system: woolly cupgrass (Eriochloa villosa)
Summary of the method: as §1

[3] = test system: yellow nutsedge (Cyperus esculentus)
Summary of the method: as §1

[4] = test system: bermudagrass (Cynodon dactylon)
Summary of the method: as §1

[5] = test system: Surinam grass (Brachiaria decumbens)
Summary of the method: as §1

[6] = test system: blackgrass (Alopecurus myosuroides)
Summary of the method: as §1

[7] = test system: green foxtail (Setaria viridis)
Summary of the method: as §1

[8] = test system: giant foxtail (Setaria faberii)
Summary of the method: as §1

[9] = test system: large crabgrass (Digitaria sanguinalis)
Summary of the method: as §1

[10] = test system: Italian ryegrass (Lolium multiflorum)
Summary of the method: as §1

[11] = test system: lambsquarters (Chenopodium album)
Summary of the method: as §1

[12] = test system: downy bromegrass (Bromus tectorum)
Summary of the method: as §1

## COc1ccc(-n2c(-c3ccccc3)ncc(C(=O)C3=C(O)CCCC3=O)c2=O)cc1 [Compound 4, 5-[(2-hydroxy-6-oxo-cyclohexen-1-yl)carbonyl]-3-(4-methoxyphenyl)-2-phenyl-4(3H)-pyrimidinone]
[1]; Ipomoea, post-emergence, 31 g ai/ha, scale 0 to 100 (0 no effect, 100 complete control), read-out: Plant response rating, Morningglory
  pest or weed control at 31 g/ha: 60%
[1]; Ipomoea, post-emergence, 62 g ai/ha, scale 0 (no effect) to 100 (complete control), 13 to 15 days, read-out: Plant response rating, Morningglory
  pest or weed control at 62 g/ha: 85%
[1]; Ipomoea, post-emergence, 125 g ai/ha, visual rating after 13 to 15 days, scale 0 (no effect) to 100 (complete control)
  pest or weed control at 125 g/ha: 90%
[1]; 250 g ai/ha, scale 0 to 100
  Morningglory plant response rating: 95
Corn (Zea mays); 250 g ai/ha, scale 0 to 100
  Corn plant response rating: 85
Corn (Zea mays); Zea mays, post-emergence, 31 g ai/ha, scale 0 to 100 (0 no effect, 100 complete control)
  Corn plant response rating (crop injury, 0 = no effect, 100 = complete kill) at 31 g/ha: 10%
Corn (Zea mays); Zea mays, post-emergence, 62 g ai/ha, scale 0 (no effect) to 100 (complete control), 13 to 15 days
  Corn plant response rating (crop injury, 0 = no effect, 100 = complete kill) at 62 g/ha: 25%
Corn (Zea mays); Zea mays, post-emergence, 125 g ai/ha, visual rating after 13 to 15 days, scale 0 (no effect) to 100 (complete control)
  Corn plant response rating (crop injury, 0 = no effect, 100 = complete kill) at 125 g/ha: 50%
[2]; Eriochloa villosa, post-emergence, 31 g ai/ha, scale 0 to 100 (0 no effect, 100 complete control), read-out: Plant response rating, Cupgrass, Woolly
  pest or weed control at 31 g/ha: 75%
[2]; Eriochloa villosa, post-emergence, 62 g ai/ha, scale 0 (no effect) to 100 (complete control), 13 to 15 days, read-out: Plant response rating, Cupgrass, Woolly
  pest or weed control at 62 g/ha: 95%
[2]; Eriochloa villosa, post-emergence, 125 g ai/ha, visual rating after 13 to 15 days, scale 0 (no effect) to 100 (complete control)
  pest or weed control at 125 g/ha: 100%
[2]; 250 g ai/ha, scale 0 to 100
  Cupgrass, Woolly plant response rating: 100
[3]; Cyperus, post-emergence, 31 g ai/ha, scale 0 to 100 (0 no effect, 100 complete control), read-out: Plant response rating, Nutsedge, Yellow
  pest or weed control at 31 g/ha: 55%
[3]; Cyperus, post-emergence, 62 g ai/ha, scale 0 (no effect) to 100 (complete control), 13 to 15 days, read-out: Plant response rating, Nutsedge, Yellow
  pest or weed control at 62 g/ha: 65%
[3]; Cyperus, post-emergence, 125 g ai/ha, visual rating after 13 to 15 days, scale 0 (no effect) to 100 (complete control)
  pest or weed control at 125 g/ha: 75%
[3]; 250 g ai/ha, scale 0 to 100
  Nutsedge, Yellow plant response rating: 80
[4]; Cynodon dactylon, post-emergence, 31 g ai/ha, scale 0 to 100 (0 no effect, 100 complete control), read-out: Plant response rating, Bermudagrass
  pest or weed control at 31 g/ha: 15%
[4]; Cynodon dactylon, post-emergence, 62 g ai/ha, scale 0 (no effect) to 100 (complete control), 13 to 15 days, read-out: Plant response rating, Bermudagrass
  pest or weed control at 62 g/ha: 85%
[4]; Cynodon dactylon, post-emergence, 125 g ai/ha, scale 0 to 100 (0 no effect, 100 complete control), 13 to 15 days, read-out: Plant response rating, Bermudagrass
  pest or weed control at 125 g/ha: 85%
[4]; 250 g ai/ha, scale 0 to 100
  Bermudagrass plant response rating: 100
[5]; 250 g ai/ha, scale 0 to 100
  Surinam Grass plant response rating: 90
[5]; Urochloa decumbens, post-emergence, 31 g ai/ha, scale 0 to 100 (0 no effect, 100 complete control), read-out: Plant response rating, Surinam Grass
  pest or weed control at 31 g/ha: 60%
[5]; Urochloa decumbens, post-emergence, 62 g ai/ha, scale 0 (no effect) to 100 (complete control), 13 to 15 days, read-out: Plant response rating, Surinam Grass
  pest or weed control at 62 g/ha: 70%
[5]; Urochloa decumbens, post-emergence, 125 g ai/ha, visual rating after 13 to 15 days, scale 0 (no effect) to 100 (complete control)
  pest or weed control at 125 g/ha: 75%
[6]; Alopecurus myosuroides, post-emergence, 360 h, 31 g ai/ha, scale 0 to 100 (0 no effect, 100 complete control), read-out: Plant response rating, Blackgrass
  pest or weed control at 31 g/ha: 10%
[6]; Alopecurus myosuroides, post-emergence, 360 h, 62 g ai/ha, scale 0 (no effect) to 100 (complete control), 13 to 15 days, read-out: Plant response rating, Blackgrass
  pest or weed control at 62 g/ha: 20%
[6]; Alopecurus myosuroides, post-emergence, 360 h, 125 g ai/ha, visual rating after 13 to 15 days, scale 0 (no effect) to 100 (complete control)
  pest or weed control at 125 g/ha: 30%
[6]; 250 g ai/ha, scale 0 to 100
  Blackgrass plant response rating: 50
[7]; 250 g ai/ha, scale 0 to 100
  Foxtail, Green plant response rating: 60
[7]; Setaria viridis, post-emergence, 31 g ai/ha, scale 0 to 100 (0 no effect, 100 complete control), read-out: Plant response rating, Foxtail, Green
  pest or weed control at 31 g/ha: 40%
[7]; Setaria viridis, post-emergence, 62 g ai/ha, scale 0 (no effect) to 100 (complete control), 13 to 15 days, read-out: Plant response rating, Foxtail, Green
  pest or weed control at 62 g/ha: 40%
[7]; Setaria viridis, post-emergence, 125 g ai/ha, visual rating after 13 to 15 days, scale 0 (no effect) to 100 (complete control)
  pest or weed control at 125 g/ha: 60%
[8]; 250 g ai/ha, scale 0 to 100
  Foxtail, Giant plant response rating: 100
[8]; Setaria faberi, post-emergence, 31 g ai/ha, scale 0 to 100 (0 no effect, 100 complete control), read-out: Plant response rating, Foxtail, Giant
  pest or weed control at 31 g/ha: 80%
[8]; Setaria faberi, post-emergence, 62 g ai/ha, scale 0 (no effect) to 100 (complete control), 13 to 15 days, read-out: Plant response rating, Foxtail, Giant
  pest or weed control at 62 g/ha: 98%
[8]; Setaria faberi, post-emergence, 125 g ai/ha, visual rating after 13 to 15 days, scale 0 (no effect) to 100 (complete control)
  pest or weed control at 125 g/ha: 98%
[9]; Digitaria sanguinalis, post-emergence, 31 g ai/ha, scale 0 to 100 (0 no effect, 100 complete control), read-out: Plant response rating, Crabgrass, Large
  pest or weed control at 31 g/ha: 70%
[9]; Digitaria sanguinalis, post-emergence, 62 g ai/ha, scale 0 (no effect) to 100 (complete control), 13 to 15 days, read-out: Plant response rating, Crabgrass, Large
  pest or weed control at 62 g/ha: 85%
[9]; Digitaria sanguinalis, post-emergence, 125 g ai/ha, visual rating after 13 to 15 days, scale 0 (no effect) to 100 (complete control)
  pest or weed control at 125 g/ha: 100%
[9]; 250 g ai/ha, scale 0 to 100
  Crabgrass, Large plant response rating: 100
[10]; Lolium multiflorum, post-emergence, 31 g ai/ha, scale 0 to 100 (0 no effect, 100 complete control), read-out: Plant response rating, Ryegrass, Italian
  pest or weed control at 31 g/ha: 10%
[10]; Lolium multiflorum, post-emergence, 62 g ai/ha, scale 0 (no effect) to 100 (complete control), 13 to 15 days, read-out: Plant response rating, Ryegrass, Italian
  pest or weed control at 62 g/ha: 10%
[10]; Lolium multiflorum, post-emergence, 125 g ai/ha, visual rating after 13 to 15 days, scale 0 (no effect) to 100 (complete control)
  pest or weed control at 125 g/ha: 15%
[10]; 250 g ai/ha, scale 0 to 100
  Ryegrass, Italian plant response rating: 20
[11]; Chenopodium album, post-emergence, 31 g ai/ha, scale 0 to 100 (0 no effect, 100 complete control), read-out: Plant response rating, Lambsquarters
  pest or weed control at 31 g/ha: 98%
[11]; Chenopodium album, post-emergence, 62 g ai/ha, scale 0 (no effect) to 100 (complete control), 13 to 15 days, read-out: Plant response rating, Lambsquarters
  pest or weed control at 62 g/ha: 100%
[11]; Chenopodium album, post-emergence, 125 g ai/ha, visual rating after 13 to 15 days, scale 0 (no effect) to 100 (complete control)
  pest or weed control at 125 g/ha: 100%
[11]; 250 g ai/ha, scale 0 to 100
  Lambsquarters plant response rating: 100
[12]; Bromus tectorum, post-emergence, 31 g ai/ha, scale 0 to 100 (0 no effect, 100 complete control), read-out: Plant response rating, Bromegrass, Downy
  pest or weed control at 31 g/ha: 10%
[12]; Bromus tectorum, post-emergence, 62 g ai/ha, scale 0 (no effect) to 100 (complete control), 13 to 15 days, read-out: Plant response rating, Bromegrass, Downy
  pest or weed control at 62 g/ha: 15%
[12]; Bromus tectorum, post-emergence, 125 g ai/ha, visual rating after 13 to 15 days, scale 0 (no effect) to 100 (complete control)
  pest or weed control at 125 g/ha: 50%
[12]; 250 g ai/ha, scale 0 to 100
  Bromegrass, Downy plant response rating: 55
